Data from US7601716B2, “Pyridopyrazines and derivatives thereof as ALK and c-Met inhibitors” (Cephalon, Inc., priority 2006, dated 2009).
Structures can show the parent of a compound that is named as a salt.

What was measured:
[1] = molecular target: baculovirus-expressed ALK (Homo sapiens, UniProt Q9UM73); assay: ALK Kinase Assay (ELISA/TRF, PLC-γ substrate); assay type: biochemical; conditions: read-out: ALK Kinase Inhibition (IC50); further: 1 µM ATP (Km level)
Summary of the method: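 GST-PLC-γ coat 10 μg/mL/TBS; 30 ng/ml ALK, 37° C, 15 min; Eu-PT66 anti-pTyr 1 h 37° C, enhancement, TRF. IC50: % inhib vs log10[cpd], variable-slope sigmoid.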

[2] = molecular target: T1, c-Met (cytoplasmic domain) (Homo sapiens, UniProt P08581); assay: c-Met Kinase Assay (ELISA/TRF, PLC-γ substrate); assay type: biochemical; conditions: 3 μM ATP (Km level); read-out: c-Met Kinase Inhibition (IC50)
T1 construct: Reactions were initiated with 30 ng/mL c-Met (cytoplasmic domain, Invitrogen Corporation #PV3143); purchased Invitrogen Corporation PV3143
T1 sequence (P08581 956-1390 limits assumed): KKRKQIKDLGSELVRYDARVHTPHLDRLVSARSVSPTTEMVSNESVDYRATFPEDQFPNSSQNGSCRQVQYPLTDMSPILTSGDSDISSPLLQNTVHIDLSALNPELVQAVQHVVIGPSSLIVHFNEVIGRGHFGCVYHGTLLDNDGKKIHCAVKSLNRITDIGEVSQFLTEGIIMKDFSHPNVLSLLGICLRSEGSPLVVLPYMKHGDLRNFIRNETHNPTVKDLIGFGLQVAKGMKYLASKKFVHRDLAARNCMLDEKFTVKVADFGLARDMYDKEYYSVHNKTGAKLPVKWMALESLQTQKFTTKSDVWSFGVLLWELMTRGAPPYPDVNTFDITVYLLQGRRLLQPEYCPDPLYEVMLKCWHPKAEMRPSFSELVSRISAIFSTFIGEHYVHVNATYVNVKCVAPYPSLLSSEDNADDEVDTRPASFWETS
Summary of the method: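 c-Met cytoplasmic domain (30 ng/mL) phosphorylates plate-coated GST–PLC-γ for 15 min at 37 °C. Phosphotyrosine detected with Eu-labeled PT66 antibody by time-resolved fluorescence. IC50 from variable-slope sigmoidal fit of % inhibition vs log concentration.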

Sequence of baculovirus-expressed ALK (Q9UM73 19-1620): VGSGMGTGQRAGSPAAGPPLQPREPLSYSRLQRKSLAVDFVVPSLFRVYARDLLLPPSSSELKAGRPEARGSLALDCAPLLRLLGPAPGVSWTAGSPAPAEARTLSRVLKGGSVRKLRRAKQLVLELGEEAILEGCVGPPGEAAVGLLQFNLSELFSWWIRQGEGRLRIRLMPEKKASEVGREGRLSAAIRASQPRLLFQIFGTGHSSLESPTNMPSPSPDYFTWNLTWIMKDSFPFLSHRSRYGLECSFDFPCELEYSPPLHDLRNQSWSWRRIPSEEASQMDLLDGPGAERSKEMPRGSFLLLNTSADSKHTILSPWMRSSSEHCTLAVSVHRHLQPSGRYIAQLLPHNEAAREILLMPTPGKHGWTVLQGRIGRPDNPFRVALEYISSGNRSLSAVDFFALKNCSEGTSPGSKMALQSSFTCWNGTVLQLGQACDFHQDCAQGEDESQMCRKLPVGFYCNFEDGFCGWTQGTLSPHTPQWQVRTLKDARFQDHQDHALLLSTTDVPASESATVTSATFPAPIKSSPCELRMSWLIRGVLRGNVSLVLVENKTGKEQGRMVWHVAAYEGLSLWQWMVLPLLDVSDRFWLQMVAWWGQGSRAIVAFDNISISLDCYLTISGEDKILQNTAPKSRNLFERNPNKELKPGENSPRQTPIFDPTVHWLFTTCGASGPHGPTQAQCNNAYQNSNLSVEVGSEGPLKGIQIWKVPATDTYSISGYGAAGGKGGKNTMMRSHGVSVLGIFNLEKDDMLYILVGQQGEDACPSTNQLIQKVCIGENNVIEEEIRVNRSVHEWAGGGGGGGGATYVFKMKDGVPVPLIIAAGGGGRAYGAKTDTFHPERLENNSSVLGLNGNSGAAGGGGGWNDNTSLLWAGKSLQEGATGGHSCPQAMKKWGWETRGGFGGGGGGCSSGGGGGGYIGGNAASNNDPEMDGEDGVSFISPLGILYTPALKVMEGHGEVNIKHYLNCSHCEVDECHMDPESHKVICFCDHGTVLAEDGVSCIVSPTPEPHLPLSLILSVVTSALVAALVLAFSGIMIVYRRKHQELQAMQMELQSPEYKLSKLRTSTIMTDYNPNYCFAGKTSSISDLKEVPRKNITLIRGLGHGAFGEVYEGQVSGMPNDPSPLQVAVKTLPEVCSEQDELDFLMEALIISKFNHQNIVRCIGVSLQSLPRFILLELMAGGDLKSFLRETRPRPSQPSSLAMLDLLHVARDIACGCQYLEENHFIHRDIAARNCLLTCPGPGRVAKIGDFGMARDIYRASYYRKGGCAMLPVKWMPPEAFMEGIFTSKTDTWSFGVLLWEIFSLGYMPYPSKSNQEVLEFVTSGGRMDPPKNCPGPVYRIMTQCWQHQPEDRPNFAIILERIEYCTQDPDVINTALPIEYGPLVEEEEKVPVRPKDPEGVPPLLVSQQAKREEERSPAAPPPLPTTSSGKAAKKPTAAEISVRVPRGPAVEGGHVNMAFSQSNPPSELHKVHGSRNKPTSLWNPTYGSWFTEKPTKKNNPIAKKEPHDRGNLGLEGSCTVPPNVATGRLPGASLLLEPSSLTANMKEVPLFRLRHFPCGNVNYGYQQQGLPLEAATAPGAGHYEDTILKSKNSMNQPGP

Structure (SMILES)	IC50 [1] [µM]	IC50 [2] [µM]
CN1CCN(C(=O)c2ccc(-c3cnc4c(c3)C(Oc3cccnc3)CCN4)cc2)CC1 (stereo not shown) [Example 276, (4-Methylpiperazin-1-yl)-{4-[5-(pyridine-3-yloxy)-5,6,7,8-tetrahydro-[1,8]naphthyridin-3-yl]phenyl}methanone]	10 to 100	10 to 100
O=C(NCc1ccncc1)c1cnc2c(c1)N(Cc1cc(Cl)ccc1Cl)CCN2 [Example 234, 1-(2,5-Dichlorobenzyl)-1,2,3,4-tetrahydropyrido[2,3-b]pyrazine-7-carboxylic acid (pyridin-4-ylmethyl)amide]	1 to 10	> 100
CC(c1cc(F)ccc1F)N1CCNc2ncc(I)cc21 (stereo not shown) [Example 153, 1-[1-(2,5-Difluorophenyl)ethyl]-7-iodo-1,2,3,4-tetrahydropyrido[2,3-b]pyrazine]	> 100	> 100
O=C(Cc1ccccc1)N1CCNc2ncc(I)cc21 [Example 110, 1-(7-Iodo-3,4-dihydro-2H-pyrido[2,3-b]pyrazin-1-yl)-2-phenylethanone]	> 100	10 to 100
NCC#Cc1cnc2c(c1)N(Cc1c(Cl)cccc1Cl)CCN2 [Example 171, 3-[1-(2,6-Dichlorobenzyl)-1,2,3,4-tetrahydropyrido[2,3-b]pyrazin-7-yl]prop-2-ynylamine, trifluoroacetic acid salt]	10 to 100	> 100
Clc1cccc(Cl)c1CN1CCNc2ncc(-c3cccnc3)cc21 [Example 138, 1-(2,6-Dichlorobenzyl)-7-pyridin-3-yl-1,2,3,4-tetrahydropyrido[2,3-b]pyrazine, trifluoroacetic acid salt]	1 to 10	10 to 100
O=C(NC1CCN(Cc2ccccc2)CC1)c1cnc2c(c1)N(Cc1cc(Cl)ccc1Cl)CCN2 [Example 225, 1-(2,5-Dichlorobenzyl)-1,2,3,4-tetrahydropyrido[2,3-b]pyrazine-7-carboxylic acid (1-benzyl-piperidin-4-yl)amide]	1 to 10	10 to 100
CN1CCN(c2ccc(-c3cnc4c(c3)C(Oc3c(F)ccc(F)c3Cl)CCN4)cn2)CC1 (stereo not shown) [Example 273, 4-(2-Chloro-3,6-difluorophenoxy)-6-[6-(4-methylpiperazin-1-yl)pyridin-3-yl]-1,2,3,4-tetrahydro-[1,8]naphthyridine]	10 to 100	10 to 100
O=C(O)c1cccc(-c2cnc3c(c2)N(Cc2ccccc2)C(=O)CN3)c1 [Example 31, 3-(1-Benzyl-2-oxo-1,2,3,4-tetrahydropyrido[2,3-b]pyrazin-7-yl)benzoic acid]	> 100	10 to 100
O=C(O)c1ccc(-c2cnc3c(c2)N(Cc2cc(Cl)ccc2C(F)(F)F)CCN3)cc1 [Example 195, 4-{1-[5-Chloro-2-(trifluoromethyl)benzyl]-1,2,3,4-tetrahydropyrido[2,3-b]pyrazin-7-yl}benzoic acid]	1 to 10	1 to 10
O=C(c1cnc2c(c1)N(Cc1cc(Cl)ccc1Cl)CCN2)N1CCC(c2noc3cc(F)ccc23)CC1 [Example 221, [1-(2,5-Dichlorobenzyl)-1,2,3,4-tetrahydropyrido[2,3-b]pyrazin-7-yl]-[4-(6-fluorobenzo[d]isoxazol-3-yl)piperidin-1-yl]methanone]	10 to 100	> 100
O=C(c1cc(F)ccc1F)N1CCNc2ncc(I)cc21 [Example 87, (2,5-Difluorophenyl)-(7-iodo-3,4-dihydro-2H-pyrido[2,3-b]pyrazin-1-yl)methanone]	> 100	> 100
CS(=O)(=O)c1ccc(-c2cnc3c(c2)N(Cc2ccccc2)C(=O)CN3)cc1 [Example 24, 1-Benzyl-7-(4-methanesulfonyl-phenyl)-3,4-dihydro-1H-pyrido[2,3-b]pyrazin-2-one]	1 to 10	> 100
O=C(O)c1ccc(-c2cnc3c(c2)N(Cc2cccnc2Cl)CCN3)cc1 [Example 302, 4-[1-(2-Chloropyridin-3-ylmethyl)-1,2,3,4-tetrahydropyrido[2,3-b]pyrazin-7-yl]benzoic acid]	> 100	> 100
CN1CCN(c2ccc(-c3cnc4c(c3)N(Cc3cc(Cl)ccc3Cl)CCN4C)cn2)CC1 [Example 188, 1-(2,5-Dichlorobenzyl)-4-methyl-7-[6-(4-methylpiperazin-1-yl)pyridin-3-yl]-1,2,3,4-tetrahydropyrido[2,3-b]pyrazine]	1 to 10	> 100
O=C(c1cnc2c(c1)N(Cc1cc(Cl)ccc1Cl)CCN2)N1CCC2(CC1)C(=O)NCN2c1ccccc1 [Example 216, 8-[1-(2,5-Dichlorobenzyl)-1,2,3,4-tetrahydropyrido[2,3-b]pyrazine-7-carbonyl]-1-phenyl-1,3,8-triaza-spiro[4.5]decan-4-one]	1 to 10	> 100

Structure (SMILES)	IC50 [1] [µM]	IC50 [2] [µM]
O=C(c1cnc2c(c1)N(Cc1cc(Cl)ccc1Cl)CCN2)N1CCN(c2ncnc3ccsc23)CC1 [Example 217, [1-(2,5-Dichlorobenzyl)-1,2,3,4-tetrahydropyrido[2,3-b]pyrazin-7-yl]-(4-thieno[3,2-d]pyrimidin-4-yl-piperazin-1-yl)methanone]	1 to 10	> 100
FC(F)(F)c1ccc(CN2CCNc3ncc(-c4ccc(N5CCOCC5)nc4)cc32)o1 [Example 292, 7-(6-Morpholin-4-yl-pyridin-3-yl)-1-[5-(trifluoromethyl)furan-2-ylmethyl]-1,2,3,4-tetrahydropyrido[2,3-b]pyrazine]	1 to 10	> 100
O=C(NC1CCc2ccccc21)c1cnc2c(c1)N(Cc1cc(Cl)ccc1Cl)CCN2 (stereo not shown) [Example 245, 1-(2,5-Dichlorobenzyl)-1,2,3,4-tetrahydropyrido[2,3-b]pyrazine-7-carboxylic acid indan-1-ylamide]	0.1 to 1	10 to 100
O=C(c1cnc2c(c1)N(Cc1cc(Cl)ccc1Cl)CCN2)N1CCN(CCc2ccccc2)CC1 [Example 260, [1-(2,5-Dichlorobenzyl)-1,2,3,4-tetrahydropyrido[2,3-b]pyrazin-7-yl]-(4-phenethyl-piperazin-1-yl)methanone]	1 to 10	> 100
Clc1cccc(OC2CCNc3ncc(Br)cc32)c1 (stereo not shown) [Example 271, 6-Bromo-4-(3-chlorophenoxy)-1,2,3,4-tetrahydro-[1,8]naphthyridine]	> 100	10 to 100
CC(c1cc(F)ccc1F)N1C(=O)CNc2ncc(-c3ccc(C(=O)N4CCC[C@H]4CN4CCCC4)cc3)cc21 (stereo partly shown) [Example 151]	0.1 to 1	10 to 100
CN1CCN(CCNC(=O)c2cnc3c(c2)N(Cc2cc(F)ccc2F)CCN3)CC1 [Example 80, 1-(2,5-Difluorobenzyl)-1,2,3,4-tetrahydropyrido[2,3-b]pyrazine-7-carboxylic acid[2(4-methylpiperazin-1-yl)ethyl]amide]	10 to 100	> 100
O=C(NC1Cc2ccccc2C1)c1cnc2c(c1)N(Cc1cc(Cl)ccc1Cl)CCN2 [Example 259, 1-(2,5-Dichlorobenzyl)-1,2,3,4-tetrahydropyrido[2,3-b]pyrazine-7-carboxylic acid indan-2-ylamide]	1 to 10	> 100
CC(C)(C)OC(=O)NCC#Cc1cnc2c(c1)N(Cc1c(Cl)cccc1Cl)CCN2 [Example 170, {3-[1-(2,6-Dichlorobenzyl)-1,2,3,4-tetrahydropyrido[2,3-b]pyrazin-7-yl]prop-2-ynyl}carbamic acid tert-butyl ester]	1 to 10	> 100
CN(C)CCCCNC(=O)c1ccc(-c2cnc3c(c2)N(Cc2ccccc2)C(=O)CN3)cc1 [Example 15, 4-(1-Benzyl-2-oxo-1,2,3,4-tetrahydropyrido[2,3-b]pyrazin-7-yl)-N-(4-dimethylaminobutyl)benzamide, trifluoroacetic acid salt]	1 to 10	10 to 100
O=C(c1cnc2c(c1)N(Cc1cc(Cl)ccc1Cl)CCN2)N1CCN(CC2CCCCC2)CC1 [Example 262, [(4-Cyclohexylmethyl)piperazin-1-yl]-[1-(2,5-dichlorobenzyl)-1,2,3,4-tetrahydropyrido[2,3-b]pyrazin-7-yl]methanone]	10 to 100	> 100
O=C(c1cnc2c(c1)N(Cc1cc(Cl)ccc1Cl)CCN2)N1CCOCC1 [Example 243, [1-(2,5-Dichlorobenzyl)-1,2,3,4-tetrahydropyrido[2,3-b]pyrazin-7-yl]morpholin-4-yl-methanone]	10 to 100	10 to 100
CN1CCN(C(=O)c2ccc(-c3cnc4c(c3)C(Oc3cc(Cl)cc(Cl)c3)CCN4)cc2)CC1 (stereo not shown) [Example 275, {4-[5-(3,5-Dichlorophenoxy)-5,6,7,8-tetrahydro-[1,8]naphthyridin-3-yl]phenyl}-(4-methylpiperazin-1-yl)methanone]	10 to 100	1 to 10
COc1ccc(CN2CCN(C(=O)c3cnc4c(c3)N(Cc3cc(Cl)ccc3Cl)CCN4)CC2)cc1 [Example 218, [1-(2,5-Dichlorobenzyl)-1,2,3,4-tetrahydropyrido[2,3-b]pyrazin-7-yl]-[4-(4-methoxybenzyl)piperazin-1-yl]methanone]	10 to 100	10 to 100
O=C(c1cnc2c(c1)N(Cc1cc(Cl)ccc1Cl)CCN2)N1CCN(c2ccccc2)CC1 [Example 206, [1-(2,5-Dichlorobenzyl)-1,2,3,4-tetrahydropyrido[2,3-b]pyrazin-7-yl]-(4-phenylpiperazin-1-yl)-methanone]	10 to 100	> 100
CN1CCN(c2ccc(-c3cnc4c(c3)N(S(=O)(=O)c3ccccc3)CCN4)cn2)CC1 [Example 125, 1-Benzenesulfonyl-7-[6-(4-methylpiperazin-1-yl)pyridin-3-yl]-1,2,3,4-tetrahydropyrido[2,3-b]pyrazine]	0.1 to 1	10 to 100
